Data published in patent US4992530A, “Calcitonin-gene-related peptide derivatives” (Toyo Jozo Kabushiki Kaisha, priority 1987, dated 1991).
Ends that are not written are not given here. Peptide text beside a SMILES is read from it.

What was measured:
[1] = Serum calcium reducing activity in rats (atomic absorption spectrophotometry); format: in vivo; conditions: 80 μg/kg intravenously, Wistar rats; for prolongation of serum calcium reducing effect compared with h-CGRP / serum calcium reducing activity compared with h-CGRP: comparator h-CGRP; for serum calcium reducing activity compared with h-CGRP: same dose; for reduction of serum calcium concentration as compared with the control group: tail vein, vs dissolving medium group, FIG. 1
Protocol: (§1) Serum calcium and serum phosphate reducing activities: Assay method:
(§2) The peptide (1) of the present invention and known h-CGRP (each 80 μg) dissolved in citrate buffer, pH 6.5, containing 0.1% bovine serum albumin (hereinafter designated dissolving medium) (1 ml) were administered intravenously into the tail vein of Wistar rats, body weight 80-90 g, 5-6 rats in one group, at 80 μg/kg. After 30 and 60 mins. of administration, blood samples were collected from the abdominal descending aorta. The serum calcium concentration was measured by atomic adsorption spectrophotometry. Serum phosphate was measured by a method according to Goldenberg et al. [Clin. Chem., 12: 872-882 (1966)].

[2] = Serum phosphate reducing activity in rats (method of Goldenberg et al.); format: in vivo; conditions: 80 μg/kg intravenously, Wistar rats; for prolongation of serum phosphate reducing effect compared with h-CGRP / serum phosphate reducing activity compared with h-CGRP: comparator h-CGRP; for serum phosphate reducing activity compared with h-CGRP: same dose; for reduction of serum phosphate concentration as compared with the control group: tail vein, vs dissolving medium group, FIG. 2
Protocol: as §1, §2

| Compound | duration of serum calcium reducing activity [1] | prolongation of serum calcium reducing effect compared with h-CGRP [1] | serum calcium reducing activity compared with h-CGRP [1] | reduction of serum calcium concentration as compared with the control group [1] | duration of serum phosphate reducing activity [2] | prolongation of serum phosphate reducing effect compared with h-CGRP [2] | serum phosphate reducing activity compared with h-CGRP [2] | reduction of serum phosphate concentration as compared with the control group [2] |
| --- | --- | --- | --- | --- | --- | --- | --- | --- |
| CC(C)C[C@H](NC(=O)[C@H](CCCNC(=N)N)NC(=O)[C@H](Cc1c[nH]cn1)NC(=O)[C@@H](NC(=O)[C@@H](NC(=O)[C@@H]1CSSC[C@H](NC(=O)[C@H](C)N)C(=O)N[C@@H](CC(N)=O)C(=O)N[C@@H]([C@@H](C)O)C(=O)N[C@@H](C)C(=O)N[C@@H]([C@@H](C)O)C(=O)N1)C(C)C)[C@@H](C)O)C(=O)N[C@@H](C)C(=O)N[C@@H](CC(=O)O)C(=O)N[C@@H](Cc1ccccc1)C(=O)N[C@@H](CC(C)C)C(=O)N[C@@H](CO)C(=O)N[C@@H](CCCNC(=N)N)C(=O)N[C@@H](CO)C(=O)NCC(=O)NCC(=O)N[C@H](C(=O)N[C@H](C(=O)N[C@@H](CCCCN)C(=O)N[C@@H](CC(N)=O)C(=O)N[C@@H](CC(N)=O)C(=O)N[C@@H](Cc1ccccc1)C(=O)N[C@H](C(=O)N1CCC[C@H]1C(=O)N[C@H](C(=O)N[C@@H](CC(N)=O)C(=O)N[C@H](C(=O)NCC(=O)N[C@@H](CO)C(=O)N[C@@H](CCCCN)C(=O)N[C@@H](C)C(=O)N[C@@H](Cc1ccccc1)C(N)=O)C(C)C)[C@@H](C)O)C(C)C)C(C)C)C(C)C [Asn^3,Asp^14,Phe^15] h-CGRP(1-37), [Asn^3,Asp^14,Phe^15] h-CGRP(1-37)] (HELM PEPTIDE1{A.C.N.T.A.T.C.V.T.H.R.L.A.D.F.L.S.R.S.G.G.V.V.K.N.N.F.V.P.T.N.V.G.S.K.A.F.[am]}$PEPTIDE1,PEPTIDE1,2:R3-7:R3$$$V2.0) | more than 2 hours | prolonged significantly | stronger than those of h-CGRP | 20-30% | more than 2 hours | prolonged significantly | stronger than those of h-CGRP | 20-30% |
| CC(C)C[C@H](NC(=O)[C@H](CCCNC(=N)N)NC(=O)[C@H](Cc1c[nH]cn1)NC(=O)[C@@H](NC(=O)[C@@H](NC(=O)[C@@H]1CSSC[C@H](NC(=O)[C@H](C)N)C(=O)N[C@@H](CC(N)=O)C(=O)N[C@@H]([C@@H](C)O)C(=O)N[C@@H](C)C(=O)N[C@@H]([C@@H](C)O)C(=O)N1)C(C)C)[C@@H](C)O)C(=O)N[C@@H](C)C(=O)NCC(=O)N[C@@H](Cc1ccccc1)C(=O)N[C@@H](CC(C)C)C(=O)N[C@@H](CO)C(=O)N[C@@H](CCCNC(=N)N)C(=O)N[C@@H](CO)C(=O)NCC(=O)NCC(=O)N[C@H](C(=O)NCC(=O)N[C@@H](CCCCN)C(=O)N[C@@H](CC(N)=O)C(=O)N[C@@H](CC(N)=O)C(=O)N[C@@H](Cc1ccccc1)C(=O)N[C@H](C(=O)N1CCC[C@H]1C(=O)N[C@H](C(=O)N[C@@H](CC(N)=O)C(=O)N[C@H](C(=O)NCC(=O)N[C@@H](CO)C(=O)N[C@@H](CCCCN)C(=O)N[C@@H](C)C(=O)N[C@@H](Cc1ccccc1)C(N)=O)C(C)C)[C@@H](C)O)C(C)C)C(C)C [[Asn^3, Phe^15,Gly^23] h-CGRP(1-37), [Asn^3,Phe^15,Gly^23] h-CGRP(1-37)] (HELM PEPTIDE1{A.C.N.T.A.T.C.V.T.H.R.L.A.G.F.L.S.R.S.G.G.V.G.K.N.N.F.V.P.T.N.V.G.S.K.A.F.[am]}$PEPTIDE1,PEPTIDE1,2:R3-7:R3$$$V2.0) | more than 2 hours | prolonged significantly | stronger than those of h-CGRP | 20-30% | more than 2 hours | prolonged significantly | stronger than those of h-CGRP | 20-30% |
| CC(C)C[C@H](NC(=O)[C@H](CCCNC(=N)N)NC(=O)[C@H](Cc1c[nH]cn1)NC(=O)[C@@H](NC(=O)[C@@H](NC(=O)[C@@H]1CSSC[C@H](NC(=O)[C@H](C)N)C(=O)N[C@@H](CC(N)=O)C(=O)N[C@@H]([C@@H](C)O)C(=O)N[C@@H](C)C(=O)N[C@@H]([C@@H](C)O)C(=O)N1)C(C)C)[C@@H](C)O)C(=O)N[C@@H](C)C(=O)N[C@@H](CC(=O)O)C(=O)N[C@@H](CC(C)C)C(=O)N[C@@H](CC(C)C)C(=O)N[C@@H](CO)C(=O)N[C@@H](CCCNC(=N)N)C(=O)N[C@@H](CO)C(=O)NCC(=O)NCC(=O)N[C@H](C(=O)NCC(=O)N[C@@H](CCCCN)C(=O)N[C@@H](CC(N)=O)C(=O)N[C@@H](CC(N)=O)C(=O)N[C@@H](Cc1ccccc1)C(=O)N[C@H](C(=O)N1CCC[C@H]1C(=O)N[C@H](C(=O)N[C@@H](CC(N)=O)C(=O)N[C@H](C(=O)NCC(=O)N[C@@H](CO)C(=O)N[C@@H](CCCCN)C(=O)N[C@@H](C)C(=O)N[C@@H](Cc1ccccc1)C(N)=O)C(C)C)[C@@H](C)O)C(C)C)C(C)C [[Asn^3,Asp^14,Gly^23] h-CGRP(1-37)] (HELM PEPTIDE1{A.C.N.T.A.T.C.V.T.H.R.L.A.D.L.L.S.R.S.G.G.V.G.K.N.N.F.V.P.T.N.V.G.S.K.A.F.[am]}$PEPTIDE1,PEPTIDE1,2:R3-7:R3$$$V2.0) | more than 2 hours | prolonged significantly | stronger than those of h-CGRP | 20-30% | more than 2 hours | prolonged significantly | stronger than those of h-CGRP | 20-30% |
| [Asp^14 ] h-CGRP(1-37) (ACDTATCVTHRLADLLSRSGGVVKNNFVPTNVGSKAF; ends and bridges not checked; cysteine pairing not given here; UniProt P06881 83-119, looked up, variant G14D) [R = H--Ala--NH--, A = Asp, B = Asp, C = Leu, D = Val] | more than 2 hours | prolonged significantly | stronger than those of h-CGRP | 20-30% | more than 2 hours | prolonged significantly | stronger than those of h-CGRP | 20-30% |
| desalanyl-deamino-[Asp^14 ] h-CGRP(2-37) [desalanyl-deamino-[Asp14] h-CGRP(2-37)] | more than 2 hours | prolonged significantly | stronger than those of h-CGRP | 20-30% | more than 2 hours | prolonged significantly | stronger than those of h-CGRP | 20-30% |
